According to the supplement of paper PMC11451515:

Experiments:
Conditions in all cases: 48 h
P12-Ichikawa [1] = assay: AUC of viability dose-response curve (% viability x log10 dose units); higher = less sensitive
Method in brief: (§1)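 In 1536-well plates, leukemia cells adapted to each medium (500 or 1000 cells/well) were exposed for 48 h at 37°C to library compounds in DMSO across 11 threefold doses, 47 μM down to 0.79 nM. Viability was read by CellTiter-Glo One luminescence and normalised per plate to DMSO and cell-free wells. A four-parameter log-logistic fit over log10 doses was integrated by trapezoidal rule. This yielded the area under the curve, with over-full-viability curves scaled and quality-control failures dropped.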

SEM cells [2] = assay: as above
Method in brief: as §1

P12-Ichikawa [3] = assay: cell viability relative to DMSO control; higher = less cytotoxic
Method in brief: (§2)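 Viability was expressed as a per-plate percentage of DMSO wells, with cell-free wells as background. Leukemia cells (NOMO1 or SEM at 500 cells/well, P12-Ichikawa at 1000 cells/well) were adapted for at least four passages in each medium and seeded in 1536-well plates (5 μl). Library compounds in DMSO were pin-dosed over an 11-point threefold series from 47 μM to 0.79 nM, and CellTiter-Glo One luminescence was read after 48 h at 37°C.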

SEM cells [4] = assay: as above
Method in brief: as §2

NOMO1 [5] = assay: as above
Method in brief: as §2

NOMO1 [6] = assay: AUC of viability dose-response curve (% viability x log10 dose units); higher = less sensitive
Method in brief: as §1

CC(=O)NC(C)c1ccc(Oc2ccc(OC(C)C)cc2)cc1 (configuration not stated)
AUC of viability dose-response curve
Conditions | HPLM + 10% dialyzed FBS | RPMI 5 mM glucose + 10% FBS | RPMI 5 mM glucose + 10% dialyzed FBS
P12-Ichikawa [1] | 454 | 440 | 450
SEM cells [2] | 469 | 438 | 449

CC1(C)CCC(=C(\C1)C2=CC=C(Cl)C=C2)/CN3CCN(CC3)C4=CC(=C(C=C4)C(=O)N[S+]([O-])(=O)C5=CC=C(NCC6CCOCC6)C(=C5)[N+]([O-])=O)OC7=CN=C8[NH]C=CC8=C7
cell viability [%]
Conditions | NOMO1 [5] | P12-Ichikawa [3] | SEM cells [4]
HPLM + 10% dialyzed FBS, 0.000781 µM | 103 | 98.6 | 104
HPLM + 10% dialyzed FBS, 0.00234 µM | 110 | 108 | 95.1
HPLM + 10% dialyzed FBS, 0.00702 µM | 95.8 | 104 | 99.3
HPLM + 10% dialyzed FBS, 0.0211 µM | 91.9 | 102 | 62.7
HPLM + 10% dialyzed FBS, 0.0632 µM | 113 | 98 | 43.7
HPLM + 10% dialyzed FBS, 0.19 µM | 71.8 | 98.3 | 12.6
HPLM + 10% dialyzed FBS, 0.569 µM | 63.2 | 98.5 | 8.25
HPLM + 10% dialyzed FBS, 1.71 µM | 55.3 | 97.5 | 7.7
HPLM + 10% dialyzed FBS, 5.12 µM | 55.1 | 83.9 | 7.49
HPLM + 10% dialyzed FBS, 15.4 µM | 45.8 | 67 | 7.18
HPLM + 10% dialyzed FBS, 46.1 µM | 39 | 49 | 5.72
RPMI 5 mM glucose + 10% FBS, 0.000781 µM | 93.7 | 103 | 124
RPMI 5 mM glucose + 10% FBS, 0.00234 µM | 84.4 | 106 | 105
RPMI 5 mM glucose + 10% FBS, 0.00702 µM | 99.3 | 114 | 123
RPMI 5 mM glucose + 10% FBS, 0.0211 µM | 89.4 | 104 | 76.2
RPMI 5 mM glucose + 10% FBS, 0.0632 µM | 85.4 | 104 | 70
RPMI 5 mM glucose + 10% FBS, 0.19 µM | 76.2 | 100 | 20.3
RPMI 5 mM glucose + 10% FBS, 0.569 µM | 61.3 | 99.2 | 11.1
RPMI 5 mM glucose + 10% FBS, 1.71 µM | 62.7 | 89.6 | 7.11
RPMI 5 mM glucose + 10% FBS, 5.12 µM | 63.2 | 96.5 | 6.79
RPMI 5 mM glucose + 10% FBS, 15.4 µM | 43 | 81.5 | 5.86
RPMI 5 mM glucose + 10% FBS, 46.1 µM | 33.6 | 68.1 | 4.71
RPMI 5 mM glucose + 10% dialyzed FBS, 0.000781 µM | 97 | 100 | 102
RPMI 5 mM glucose + 10% dialyzed FBS, 0.00234 µM | 95 | 103 | 90.8
RPMI 5 mM glucose + 10% dialyzed FBS, 0.00702 µM | 96.2 | 101 | 88.3
RPMI 5 mM glucose + 10% dialyzed FBS, 0.0211 µM | 76.7 | 105 | 53.8
RPMI 5 mM glucose + 10% dialyzed FBS, 0.0632 µM | 66.4 | 96.3 | 38
RPMI 5 mM glucose + 10% dialyzed FBS, 0.19 µM | 57.7 | 103 | 16.5
RPMI 5 mM glucose + 10% dialyzed FBS, 0.569 µM | 49 | 99 | 8.07
RPMI 5 mM glucose + 10% dialyzed FBS, 1.71 µM | 38.2 | 90.8 | 6.59
RPMI 5 mM glucose + 10% dialyzed FBS, 5.12 µM | 42.9 | 96.1 | 6.67
RPMI 5 mM glucose + 10% dialyzed FBS, 15.4 µM | 28 | 78.1 | 5.3
RPMI 5 mM glucose + 10% dialyzed FBS, 46.1 µM | 23.9 | 65.7 | 4.75

AUC of viability dose-response curve
Conditions | NOMO1 [6] | P12-Ichikawa [1] | SEM cells [2]
HPLM + 10% dialyzed FBS | 355 | 436 | 186
RPMI 5 mM glucose + 10% FBS | 347 | 436 | 198
RPMI 5 mM glucose + 10% dialyzed FBS | 290 | 449 | 175

CC(=O)O/N=C1/C(=C2\C(=O)Nc3cc(Br)ccc32)Nc2ccccc21
cell viability [%], SEM cells [4]
Conditions | HPLM + 10% dialyzed FBS | RPMI 5 mM glucose + 10% FBS | RPMI 5 mM glucose + 10% dialyzed FBS
0.000781 µM | 128 | 112 | 113
0.00234 µM | 110 | 116 | 122
0.00702 µM | 119 | 109 | 122
0.0211 µM | 118 | 108 | 129
0.0632 µM | 111 | 119 | 100
0.19 µM | 113 | 102 | 95
0.569 µM | 86.1 | 87.6 | 84.6
1.71 µM | 37.8 | 29.5 | 30.1
5.12 µM | 32.8 | 22.4 | 37.5
15.4 µM | 13.2 | 8.09 | 11.8
46.1 µM | 2.6 | 0.612 | 1.61

AUC of viability dose-response curve
Conditions | NOMO1 [6] | P12-Ichikawa [1] | SEM cells [2]
HPLM + 10% dialyzed FBS | 431 | 439 | 324
RPMI 5 mM glucose + 10% FBS | 450 | 443 | 317
RPMI 5 mM glucose + 10% dialyzed FBS | 443 | 437 | 308

C/C(=C\C(=O)Nc1ccccc1C(=O)O)c1ccc2ccccc2c1
AUC of viability dose-response curve
Conditions | HPLM + 10% dialyzed FBS | RPMI 5 mM glucose + 10% FBS | RPMI 5 mM glucose + 10% dialyzed FBS
P12-Ichikawa [1] | 461 | 461 | 456
SEM cells [2] | 435 | 447 | 463

CCN(CC)Cc1ccc2cc(COC(=O)Nc3ccc(C(=O)NO)cc3)ccc2c1
SEM cells [4], HPLM + 10% dialyzed FBS
Conditions | cell viability [%]
0.000781 µM | 108
0.00234 µM | 121
0.00702 µM | 127
0.0211 µM | 138
0.0632 µM | 129
0.19 µM | 138
0.569 µM | 118
1.71 µM | 59.1
5.12 µM | 3.07
15.4 µM | 2.21
46.1 µM | 3.97

AUC of viability dose-response curve
Conditions | NOMO1 [6] | P12-Ichikawa [1] | SEM cells [2]
HPLM + 10% dialyzed FBS | 362 | 349 | 333
RPMI 5 mM glucose + 10% FBS | 372 | 347 | 345
RPMI 5 mM glucose + 10% dialyzed FBS | 370 | 352 | 339

Clc1ccc2c(N3CCN(CCCN4CCN(c5ccnc6cc(Cl)ccc56)CC4)CC3)ccnc2c1
cell viability [%], SEM cells [4]
Conditions | HPLM + 10% dialyzed FBS | RPMI 5 mM glucose + 10% dialyzed FBS
0.000781 µM | 96.6 | 118
0.00234 µM | 111 | 131
0.00702 µM | 125 | 112
0.0211 µM | 102 | 120
0.0632 µM | 120 | 119
0.19 µM | 120 | 128
0.569 µM | 135 | 134
1.71 µM | 130 | 146
5.12 µM | 133 | 130
15.4 µM | 102 | 109
46.1 µM | 84.5 | 69.9

AUC of viability dose-response curve
Conditions | NOMO1 [6] | P12-Ichikawa [1] | SEM cells [2]
HPLM + 10% dialyzed FBS | 469 | 456 | 464
RPMI 5 mM glucose + 10% FBS | 457 | 448 | 459
RPMI 5 mM glucose + 10% dialyzed FBS | 465 | 442 | 459

CC/C(=C(/CC)c1ccc(O)cc1)c1ccc(O)cc1
AUC of viability dose-response curve
Conditions | NOMO1 [6] | P12-Ichikawa [1] | SEM cells [2]
HPLM + 10% dialyzed FBS | 442 | 463 | 473
RPMI 5 mM glucose + 10% FBS | 465 | 457 | 460
RPMI 5 mM glucose + 10% dialyzed FBS | 429 | 436 | 421
